Measured values as given in patent publication EP4763839A1 (Pamplona Therapeutics (Shenzhen) Co., Ltd., priority 2023, dated 2025).

Target: T1, IRAK4 (Homo sapiens, UniProt Q9NWZ3)
T1 sequence (Q9NWZ3 1-460): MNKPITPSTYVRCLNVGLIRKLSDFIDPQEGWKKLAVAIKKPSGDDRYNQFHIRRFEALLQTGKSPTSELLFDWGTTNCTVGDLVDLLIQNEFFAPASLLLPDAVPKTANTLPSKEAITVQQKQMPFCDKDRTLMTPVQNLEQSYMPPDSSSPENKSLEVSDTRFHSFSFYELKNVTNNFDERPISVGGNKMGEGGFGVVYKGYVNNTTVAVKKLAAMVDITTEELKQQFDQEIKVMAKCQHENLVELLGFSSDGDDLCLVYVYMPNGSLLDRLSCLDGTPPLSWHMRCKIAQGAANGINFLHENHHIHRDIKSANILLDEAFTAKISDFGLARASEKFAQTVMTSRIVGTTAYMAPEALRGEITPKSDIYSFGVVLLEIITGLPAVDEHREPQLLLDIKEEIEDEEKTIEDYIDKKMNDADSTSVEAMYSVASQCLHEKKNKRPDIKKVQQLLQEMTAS
Experiment: Degradation of IRAK4 in THP1 cells, Western blot
Type: cell-based
Parameters: Degradation of IRAK4 in THP1 by compound; host or cells: THP-1
Conditions: THP-1 cells, 24 hours of incubation; for DC50: IRAK4 protein by Western blot, read-out: DC50; for Dmax: maximum degradation rate, read-out: Dmax
Summary of the method: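 Degradation rate derived from densitometry of IRAK4 bands versus DMSO-treated controls. Read-out: anti-IRAK4 immunoblot (10% gel, 40 μg total protein per lane, BCA-normalised) of lysates from THP1 cells incubated with compound for 24 h.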

Row | Structure (SMILES) | DC50 [µM] | Dmax [%]
1 | Cn1c(=O)n(C2CCC(=O)NC2=O)c2cccc(C#CCOC3CN(Cc4ccc(-n5cc(NC(=O)c6cccc(-c7ccn[nH]7)n6)c(S(N)(=O)=O)n5)cc4)C3)c21 (stereo not shown) [Compound A351, N-(1-(4-((3-((3-(1-(2,6-dioxopiperidin-3-yl)-3-methyl-2-oxo-2,3-dihydro-1H-benzo[d]imidazol-4-yl)prop-2-yn-1-yl)oxy)azetidin-1-yl)methyl)phenyl)-3-sulfamoyl-1H-pyrazol-4-yl)-6-(1H-pyrazol-5-yl)picolinamide] | 0.1 to 1 | 40 to 60
2 | NC(=O)c1nn(-c2ccc(N3CCN(C4CCN(c5ccc(OC6CCC(=O)NC6=O)cc5F)CC4)CC3)cc2)cc1NC(=O)c1cccc(C(F)(F)F)n1 (stereo not shown) [Compound A430, N-(3-Carbamoyl-1-(4-(4-(1-(4-((2,6-dioxopiperidin-3-yl)oxy)-2-fluorophenyl)piperidin-4-yl)piperazin-1-yl)phenyl)-1H-pyrazol-4-yl)-6-(trifluoromethyl)picolinamide] | < 0.1 | > 60
3 | Cn1c(=O)n(C2CCC(=O)NC2=O)c2ccc(N3CCC(CN4CCN(c5ccc(-n6cc(NC(=O)c7cccc(C(F)(F)F)n7)c(C(N)=O)n6)cc5)CC4)C(F)(F)C3)cc21 (stereo not shown) [Compound A299, N-(3-Carbamoyl-1-(4-(4-((1-(1-(2,6-dioxopiperidin-3-yl)-3-methyl-2-oxo-2,3-dihydro-1H-benzo[d]imidazol-5-yl)-3,3-difluoropiperidin-4-yl)methyl)piperazin-1-yl)phenyl)-1H-pyrazol-4-yl)-6-(trifluoromethyl)picolinamide] | < 0.1 | > 60
4 | NC(=O)c1nn(-c2ccc(N3CCN(C(=O)N4CCC(c5ccc(OC6CCC(=O)NC6=O)cc5F)CC4)CC3)cc2)cc1NC(=O)c1cccc(C(F)(F)F)n1 (stereo not shown) [Compound A355, N-(3-Carbamoyl-1-(4-(4-(4-(4-((2,6-dioxopiperidin-3-yl)oxy)-2-fluorophenyl)piperidine-1-carbonyl)piperazin-1-yl)phenyl)-1H-pyrazol-4-yl)-6-(trifluoromethyl)picolinamide] | < 0.1 | > 60
5 | NC(=O)c1nn([C@H]2CC[C@H](N3CCN(CC4CN(c5ccc(N6CCC(=O)NC6=O)cc5)C4)CC3)CC2)cc1NC(=O)c1cccc(C(F)(F)F)n1 [Compound A403, N-(3-Carbamoyl-1-((1r,4r)-4-(4-((1-(4-(2,4-dioxotetrahydropyrimidin-1(2H)-yl)phenyl)azetidin-3-yl)methyl)piperazin-1-yl)cyclohexyl)-1H-pyrazol-4-yl)-6-(trifluoromethyl)picolinamide] | < 0.1 | 40 to 60
6 | Cn1c(=O)n(C2CCC(=O)NC2=O)c2cccc(C#CCOC3CCN(C(=O)c4ccc(-n5cc(NC(=O)c6cccc(-c7ccn[nH]7)n6)c(S(N)(=O)=O)n5)cc4)CC3)c21 (stereo not shown) [Compound A335, N-(1-(4-(4-((3-(1-(2,6-Dioxopiperidin-3-yl)-3-methyl-2-oxo-2,3-dihydro-1H-benzo[d]imidazol-4-yl)prop-2-yn-1-yl)oxy)piperidine-1-carbonyl)phenyl)-3-sulfamoyl-1H-pyrazol-4-yl)-6-(1H-pyrazol-5-yl)picolinamide] | < 0.1 | > 60
7 | N#Cc1cccc(C(=O)Nc2cn(-c3ccc(N4CCN(CC5CCN(c6ccc(NC7CCC(=O)NC7=O)cc6F)CC5)CC4)cc3)nc2C(N)=O)n1 (stereo not shown) [Compound A384, N-(3-Carbamoyl-1-(4-(4-((1-(4-((2,6-dioxopiperidin-3-yl)amino)-2-fluorophenyl)piperidin-4-yl)methyl)piperazin-1-yl)phenyl)-1H-pyrazol-4-yl)-6-cyanopicolinamide] | > 1 | < 40
8 | Cn1c(=O)n(C2CCC(=O)NC2=O)c2cccc(CN3CCC(N4CCN(c5ccc(-n6cc(NC(=O)c7cccc(C(F)(F)F)n7)c(C(N)=O)n6)cc5)CC4)CC3)c21 (stereo not shown) [Compound A372] | < 0.1 | > 60
9 | N#Cc1ccnc(C(=O)Nc2cn(-c3ccc(N4CCN(CC5CCN(c6ccc(NC7CCC(=O)NC7=O)cc6F)CC5)CC4)cc3)nc2C(N)=O)c1 (stereo not shown) [Compound A349, N-(3-Carbamoyl-1-(4-(4-((1-(4-((2,6-dioxopiperidin-3-yl)amino)-2-fluorophenyl)piperidin-4-yl)methyl)piperazin-1-yl)phenyl)-1H-pyrazol-4-yl)-4-cyanopicolinamide] | > 1 | < 40
10 | CC(C)(O)c1nn(-c2ccc(N3CCN(CC4CCN(c5ccc(NC6CCC(=O)NC6=O)cc5F)CC4)CC3)cc2)cc1NC(=O)c1cccc(C(F)(F)F)n1 (stereo not shown) [Compound A434, N-(1-(4-(4-((1-(4-((2,6-Dioxopiperidin-3-yl)amino)-2-fluorophenyl)piperidin-4-yl)methyl)piperazin-1-yl)phenyl)-3-(2-hydroxypropan-2-yl)-1H-pyrazol-4-yl)-6-(trifluoromethyl)picolinamide] | < 0.1 | > 60
11 | Cn1c(=O)n(C2CCC(=O)NC2=O)c2cccc(N3CCC4(CC3)CN(C(=O)Cc3ccc(-n5cc(NC(=O)c6cccc(C(F)(F)F)n6)c(C(N)=O)n5)cc3)C4)c21 (stereo not shown) [Compound A321, N-(3-Carbamoyl-1-(4-(2-(7-(1-(2,6-dioxopiperidin-3-yl)-3-methyl-2-oxo-2,3-dihydro-1H-benzimidazol-4-yl)-2,7-diazaspiro[3.5]nonan-2-yl)-2-oxoethyl)phenyl)-1H-pyrazol-4-yl)-6-(trifluoromethyl)picolinamide] | < 0.1 | > 60
12 | Cn1c(=O)n(C2CCC(=O)NC2=O)c2cccc(C#CCOC3CCN(Cc4ccc(-n5cc(NC(=O)c6cccc(-c7ccn[nH]7)n6)c(S(N)(=O)=O)n5)cc4)CC3)c21 (stereo not shown) [Compound A340, N-(1-(4-((4-((3-(1-(2,6-Dioxopiperidin-3-yl)-3-methyl-2-oxo-2,3-dihydro-1H-benzo[d]imidazol-4-yl)prop-2-yn-1-yl)oxy)piperidin-1-yl)methyl)phenyl)-3-sulfamoyl-1H-pyrazol-4-yl)-6-(1H-pyrazol-5-yl)picolinamide] | < 0.1 | > 60
13 | COc1cc(NC2CCC(=O)NC2=O)ccc1N1CCC(N2CCN(c3ccc(-n4cc(NC(=O)c5cccc(C(F)(F)F)n5)c(C(N)=O)n4)cc3)CC2)CC1 (stereo not shown) [Compound A425, N-(3-Carbamoyl-1-(4-(4-(1-(4-((2,6-dioxopiperidin-3-yl)amino)-2-methoxyphenyl)piperidin-4-yl)piperazin-1-yl)phenyl)-1H-pyrazol-4-yl)-6-(trifluoromethyl)picolinamide] | < 0.1 | > 60
14 | Cn1c(=O)n(C2CCC(=O)NC2=O)c2cccc(C(=O)N3CCC4(CCN(Cc5ccc(-n6cc(NC(=O)c7cccc(-c8ccn[nH]8)n7)c(S(N)(=O)=O)n6)cc5)C4)CC3)c21 (stereo not shown) [Compound A357, N-(1-(4-((8-(1-(2,6-Dioxopiperidin-3-yl)-3-methyl-2-oxo-2,3-dihydro-1H-benzo[d]imidazole-4-carbonyl)-2,8-diazaspiro[4.5]decan-2-yl)methyl)phenyl)-3-sulfamoyl-1H-pyrazol-4-yl)-6-(1H-pyrazol-5-yl)picolinamide] | < 0.1 | > 60
